Activity calls are given as the source filed them. The rule behind the calls is not given here.
Legend:
[1] = molecular target: Phosphatidylinositol 4,5-bisphosphate 3-kinase catalytic subunit alpha isoform (Homo sapiens, UniProt P42336); experiment: Inhibition of PI3Kalpha (unknown origin) using PIP2 as substrate in presence of ATP measured after 1 hr by ADP-Glo assay
[2] = tested on: MGC-803; experiment: Antiproliferative activity against human MGC-803 cells assessed as inhibition of cell growth incubated for 72 hrs by CCK8 assay; type: functional, cell-based; conditions: MGC-803, 72 h
[3] = tested on: MCF7; experiment: Antiproliferative activity against human MCF7 cells assessed as inhibition of cell growth incubated for 72 hrs by CCK8 assay; type: functional, cell-based; conditions: MCF7, 72 h
[4] = molecular target: Phosphatidylinositol 4,5-bisphosphate 3-kinase catalytic subunit beta isoform (Homo sapiens, UniProt P42338); experiment: Inhibition of PI3Kbeta (unknown origin) in presence of [33P]-ATP incubated for 2 hrs by hotspot kinase assay
[5] = molecular target: T1, Phosphatidylinositol 4,5-bisphosphate 3-kinase catalytic subunit delta isoform (Homo sapiens, UniProt O00329); experiment: Inhibition of PI3Kdelta (unknown origin) in presence of [33P]-ATP incubated for 2 hrs by hotspot kinase assay
T1 sequence (O00329 whole entry): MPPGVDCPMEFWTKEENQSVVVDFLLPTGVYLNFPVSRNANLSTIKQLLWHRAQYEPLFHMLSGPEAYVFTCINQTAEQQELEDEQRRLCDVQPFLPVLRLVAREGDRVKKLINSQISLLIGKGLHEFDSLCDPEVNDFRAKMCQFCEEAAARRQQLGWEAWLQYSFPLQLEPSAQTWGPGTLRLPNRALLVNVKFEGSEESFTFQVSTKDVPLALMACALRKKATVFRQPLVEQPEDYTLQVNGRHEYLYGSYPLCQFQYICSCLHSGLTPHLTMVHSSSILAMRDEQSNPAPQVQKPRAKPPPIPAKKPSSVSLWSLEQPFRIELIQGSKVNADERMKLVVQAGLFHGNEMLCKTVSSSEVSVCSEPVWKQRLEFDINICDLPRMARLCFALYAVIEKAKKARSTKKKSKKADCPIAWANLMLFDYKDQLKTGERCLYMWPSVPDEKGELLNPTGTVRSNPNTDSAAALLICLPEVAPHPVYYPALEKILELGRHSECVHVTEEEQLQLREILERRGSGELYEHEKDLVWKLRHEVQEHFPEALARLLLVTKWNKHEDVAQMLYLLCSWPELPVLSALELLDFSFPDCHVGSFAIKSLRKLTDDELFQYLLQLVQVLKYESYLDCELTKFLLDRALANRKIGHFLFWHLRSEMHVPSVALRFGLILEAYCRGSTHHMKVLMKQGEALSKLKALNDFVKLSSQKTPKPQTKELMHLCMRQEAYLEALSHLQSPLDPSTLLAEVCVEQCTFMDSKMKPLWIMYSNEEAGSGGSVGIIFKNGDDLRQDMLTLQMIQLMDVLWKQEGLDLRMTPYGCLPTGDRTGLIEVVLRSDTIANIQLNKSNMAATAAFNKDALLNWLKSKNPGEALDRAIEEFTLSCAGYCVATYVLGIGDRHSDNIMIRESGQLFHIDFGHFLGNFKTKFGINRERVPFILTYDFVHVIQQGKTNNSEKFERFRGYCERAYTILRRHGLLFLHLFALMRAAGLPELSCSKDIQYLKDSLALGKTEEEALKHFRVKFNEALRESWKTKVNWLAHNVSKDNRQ

[6] = species: Homo sapiens; experiment: Selectivity index, ratio of IC50 for inhibition of PI3Kbeta (unknown origin) to IC50 for inhibition of PI3Kalpha (unknown origin)
[7] = species: Homo sapiens; experiment: Selectivity index, ratio of IC50 for inhibition of PI3Kdelta (unknown origin) to IC50 for inhibition of PI3Kalpha (unknown origin)
[8] = species: Homo sapiens; experiment: Selectivity index, ratio of IC50 for inhibition of PI3Kgamma (unknown origin) to IC50 for inhibition of PI3Kalpha (unknown origin)
[9] = molecular target: Phosphatidylinositol 4,5-bisphosphate 3-kinase catalytic subunit gamma isoform (Homo sapiens, UniProt P48736)
[10] = tested on: MGC-803; experiment: Antitumor activity against human MGC-803 cells xenografted in BALB/c nude mouse assessed as reduction in tumor volume at 10 mg/kg, ip administered every day for 3 weeks by vernier caliper method; type: functional, organism-based
[11] = tested on: MGC-803; experiment: Antitumor activity against human MGC-803 cells xenografted in BALB/c nude mouse assessed as tumor growth inhibition at 30 mg/kg, po administered every day for 3 weeks; type: functional; conditions: MGC-803, 504 h, read-out: TGI

Chain of Phosphatidylinositol 4,5-bisphosphate 3-kinase catalytic subunit alpha isoform (P42336 whole entry, canonical isoform): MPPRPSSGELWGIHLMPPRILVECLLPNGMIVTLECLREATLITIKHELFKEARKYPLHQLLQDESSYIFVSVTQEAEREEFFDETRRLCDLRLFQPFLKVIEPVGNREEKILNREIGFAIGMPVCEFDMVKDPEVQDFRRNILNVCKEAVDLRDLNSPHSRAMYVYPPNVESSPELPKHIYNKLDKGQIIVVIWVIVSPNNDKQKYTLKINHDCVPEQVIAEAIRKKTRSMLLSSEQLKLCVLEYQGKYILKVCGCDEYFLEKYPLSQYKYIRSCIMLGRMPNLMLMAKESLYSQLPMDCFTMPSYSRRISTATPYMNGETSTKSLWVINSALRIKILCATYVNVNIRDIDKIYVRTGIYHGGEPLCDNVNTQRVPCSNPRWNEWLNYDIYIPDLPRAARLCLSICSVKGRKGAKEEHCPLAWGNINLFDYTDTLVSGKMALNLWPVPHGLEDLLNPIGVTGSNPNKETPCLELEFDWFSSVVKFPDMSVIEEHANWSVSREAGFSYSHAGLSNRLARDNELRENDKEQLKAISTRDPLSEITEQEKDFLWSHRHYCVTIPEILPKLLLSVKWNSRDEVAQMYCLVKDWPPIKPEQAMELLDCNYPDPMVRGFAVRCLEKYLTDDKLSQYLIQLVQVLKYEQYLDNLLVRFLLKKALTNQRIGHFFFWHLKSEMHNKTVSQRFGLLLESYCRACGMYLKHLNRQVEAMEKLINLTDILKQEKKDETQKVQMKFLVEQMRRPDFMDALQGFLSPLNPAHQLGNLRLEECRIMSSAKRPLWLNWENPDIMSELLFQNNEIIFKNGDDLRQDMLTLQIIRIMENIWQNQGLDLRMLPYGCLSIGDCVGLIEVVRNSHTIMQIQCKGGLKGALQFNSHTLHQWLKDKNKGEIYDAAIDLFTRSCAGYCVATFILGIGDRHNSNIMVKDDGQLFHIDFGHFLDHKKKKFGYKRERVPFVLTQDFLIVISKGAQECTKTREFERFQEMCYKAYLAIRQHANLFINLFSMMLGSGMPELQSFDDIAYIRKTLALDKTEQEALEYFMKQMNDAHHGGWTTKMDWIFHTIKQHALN
Chain of Phosphatidylinositol 4,5-bisphosphate 3-kinase catalytic subunit beta isoform (P42338 whole entry, canonical isoform): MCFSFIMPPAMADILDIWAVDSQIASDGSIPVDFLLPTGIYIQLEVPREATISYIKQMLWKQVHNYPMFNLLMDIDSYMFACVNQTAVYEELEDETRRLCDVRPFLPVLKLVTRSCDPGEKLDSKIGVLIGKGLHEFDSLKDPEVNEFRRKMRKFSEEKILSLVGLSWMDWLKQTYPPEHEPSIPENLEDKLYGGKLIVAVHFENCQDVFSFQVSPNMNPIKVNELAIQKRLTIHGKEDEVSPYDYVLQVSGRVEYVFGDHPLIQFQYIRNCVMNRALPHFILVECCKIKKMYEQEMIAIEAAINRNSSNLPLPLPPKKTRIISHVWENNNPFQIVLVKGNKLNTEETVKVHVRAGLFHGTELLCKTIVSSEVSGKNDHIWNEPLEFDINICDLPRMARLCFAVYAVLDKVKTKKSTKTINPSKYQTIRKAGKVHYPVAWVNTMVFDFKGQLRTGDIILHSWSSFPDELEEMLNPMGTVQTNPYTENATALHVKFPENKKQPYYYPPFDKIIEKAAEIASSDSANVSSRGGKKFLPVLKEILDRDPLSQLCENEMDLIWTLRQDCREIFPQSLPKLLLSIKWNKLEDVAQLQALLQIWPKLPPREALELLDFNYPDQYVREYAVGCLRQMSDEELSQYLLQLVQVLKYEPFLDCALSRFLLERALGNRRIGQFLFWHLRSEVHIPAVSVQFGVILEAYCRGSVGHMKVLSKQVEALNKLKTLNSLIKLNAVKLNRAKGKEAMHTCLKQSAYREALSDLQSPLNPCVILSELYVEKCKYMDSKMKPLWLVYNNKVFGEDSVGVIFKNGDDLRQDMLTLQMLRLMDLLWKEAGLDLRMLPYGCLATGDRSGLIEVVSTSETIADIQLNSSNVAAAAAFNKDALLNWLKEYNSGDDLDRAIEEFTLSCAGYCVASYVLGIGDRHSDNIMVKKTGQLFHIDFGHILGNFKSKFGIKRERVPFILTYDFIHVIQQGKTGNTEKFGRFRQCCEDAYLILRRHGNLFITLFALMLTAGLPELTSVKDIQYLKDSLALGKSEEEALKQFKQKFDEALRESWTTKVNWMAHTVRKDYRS
Chain of Phosphatidylinositol 4,5-bisphosphate 3-kinase catalytic subunit gamma isoform (P48736 whole entry, canonical isoform): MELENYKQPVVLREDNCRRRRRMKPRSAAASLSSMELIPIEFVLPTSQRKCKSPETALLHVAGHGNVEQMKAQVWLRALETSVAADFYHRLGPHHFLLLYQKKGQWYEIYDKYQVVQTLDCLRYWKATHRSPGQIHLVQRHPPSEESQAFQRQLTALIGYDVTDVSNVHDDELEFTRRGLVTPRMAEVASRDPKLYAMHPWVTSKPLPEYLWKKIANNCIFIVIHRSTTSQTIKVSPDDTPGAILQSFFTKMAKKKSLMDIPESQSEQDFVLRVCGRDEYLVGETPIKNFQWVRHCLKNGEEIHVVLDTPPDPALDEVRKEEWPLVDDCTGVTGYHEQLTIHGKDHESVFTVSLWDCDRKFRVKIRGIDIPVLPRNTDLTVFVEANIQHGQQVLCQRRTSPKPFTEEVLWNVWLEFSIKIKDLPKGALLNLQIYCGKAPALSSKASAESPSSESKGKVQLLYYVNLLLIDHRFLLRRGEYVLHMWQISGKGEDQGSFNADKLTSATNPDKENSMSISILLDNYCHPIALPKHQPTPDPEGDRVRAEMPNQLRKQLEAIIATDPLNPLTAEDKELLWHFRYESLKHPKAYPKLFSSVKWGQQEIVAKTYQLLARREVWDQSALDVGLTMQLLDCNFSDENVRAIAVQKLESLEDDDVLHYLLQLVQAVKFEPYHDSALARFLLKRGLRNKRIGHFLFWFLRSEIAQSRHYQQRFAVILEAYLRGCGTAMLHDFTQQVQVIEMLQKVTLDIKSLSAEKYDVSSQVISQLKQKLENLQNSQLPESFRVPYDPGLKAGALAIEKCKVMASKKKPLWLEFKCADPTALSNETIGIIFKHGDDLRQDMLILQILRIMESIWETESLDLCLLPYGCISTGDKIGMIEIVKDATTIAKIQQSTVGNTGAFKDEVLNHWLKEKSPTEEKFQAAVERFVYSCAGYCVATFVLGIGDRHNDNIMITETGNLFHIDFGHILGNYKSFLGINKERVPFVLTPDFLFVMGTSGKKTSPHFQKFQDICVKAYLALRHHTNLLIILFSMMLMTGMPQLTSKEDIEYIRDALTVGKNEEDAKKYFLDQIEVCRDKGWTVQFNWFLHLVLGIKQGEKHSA

Row | SMILES | IC50 [1] [nM] | also measured
1 | CC(C)(C)OC(=O)N1CCN(c2nc(-c3ccc4nc(N)sc4c3)nc(N3CCOCC3)n2)CC1 | 432 | –
2 | Nc1nc2ccc(-c3nc(Nc4ccc5c(c4)OCO5)nc(Nc4ccc5c(c4)OCO5)n3)cc2o1 | > 10000 | –
3 | Cc1nc(NC(=O)N2CCC[C@H]2C(N)=O)sc1-c1ccnc(C(C)(C)C(F)(F)F)c1 [ALPELISIB] | – | IC50 [2]: 430 nM; IC50 [3]: 430 nM
4 | COc1ccc(CNc2nc3cc(-c4nc(N5CCOCC5)nc(N5CCOCC5)n4)ccc3o2)cc1 | 81 | –
5 | c1ccc(CNc2nc3cc(-c4nc(N5CCOCC5)nc(N5CCOCC5)n4)ccc3o2)cc1 | 63 | –
6 | CC(=O)Nc1nc2cc(-c3nc(N4CCOCC4)nc(N4CCOCC4)n3)ccc2o1 | 66 | –
7 | CN(C)c1nc2ccc(-c3nc(N4CCOCC4)nc(N4CCN(S(C)(=O)=O)CC4)n3)cc2s1 | > 10000 | –
8 | CC(C)C(=O)Nc1nc2cc(-c3nc(N4CCOCC4)nc(N4CCOCC4)n3)ccc2o1 | 397 | –
9 | Nc1nc2cc(-c3nc(NC4CCOCC4)nc(N4CCOCC4)n3)ccc2o1 | 4240 | –
10 | CC(C)N1CCN(c2nc(-c3ccc4oc(N)nc4c3)nc(N3CCOCC3)n2)CC1 | 1050 | –
11 | Nc1nc2ccc(-c3nc(N4CCOCC4)nc(N4CCOCC4)n3)cc2s1 | 357 | –
12 | Nc1nc2cc(-c3nc(Nc4cccc(C(F)(F)F)c4)nc(N4CCOCC4)n3)ccc2o1 | 1410 | –
13 | COC(=O)c1ccc(CNc2nc3cc(-c4nc(N5CCOCC5)nc(N5CCOCC5)n4)ccc3o2)cc1 | 99 | –
14 | CC(=O)N1CCN(c2nc(-c3ccc4nc(NCc5ccc(C(=O)O)cc5)oc4c3)nc(N3CCN(C(C)=O)CC3)n2)CC1 | > 10000 | –
15 | CN(C)c1nc2ccc(-c3nc(N4CCNCC4)nc(N4CCOCC4)n3)cc2s1 | > 10000 | –
16 | N#Cc1ccc(CNc2nc3cc(-c4nc(N5CCOCC5)nc(N5CCOCC5)n4)ccc3o2)cc1 | 86 | –
17 | CC(C)Nc1nc2cc(-c3nc(N4CCOCC4)nc(N4CCOCC4)n3)ccc2o1 | 2770 | –
18 | CN(C)c1nc2ccc(-c3nc(N4CCOCC4)nc(N4CCOCC4)n3)cc2s1 | > 10000 | –
19 | CC(=O)Nc1nc2ccc(-c3nc(N4CCOCC4)nc(N4CCOCC4)n3)cc2s1 | 8750 | –
20 | c1cc2oc(NC3CCCC3)nc2cc1-c1nc(N2CCOCC2)nc(N2CCOCC2)n1 | 2820 | –

Row | SMILES | IC50 [1] [nM] | also measured
21 | CN(C)c1nc2ccc(-c3nc(Nc4ccc(C(F)(F)F)cc4)nc(N4CCOCC4)n3)cc2s1 | > 10000 | –
22 | COC(=O)c1ccc(CNc2nc3ccc(-c4nc(N5CCN(C(C)=O)CC5)nc(N5CCN(C(C)=O)CC5)n4)cc3o2)cc1 | > 10000 | –
23 | CS(=O)(=O)N1CCN(c2nc(-c3ccc4oc(N)nc4c3)nc(N3CCOCC3)n2)CC1 | 32 | –
24 | FC(F)(F)c1ccc(CNc2nc3cc(-c4nc(N5CCOCC5)nc(N5CCOCC5)n4)ccc3o2)cc1 | 300 | –
25 | Nc1nc2cc(-c3nc(NC4CCC(C(F)(F)F)CC4)nc(N4CCOCC4)n3)ccc2o1 (stereo not drawn) | 703 | –
26 | CC(C)c1ccc(CNc2nc3cc(-c4nc(N5CCOCC5)nc(N5CCOCC5)n4)ccc3o2)cc1 | 311 | –
27 | Nc1nc2cc(-c3nc(N4CCNCC4)nc(N4CCOCC4)n3)ccc2o1 | 569 | –
28 | O=C(O)c1ccc(CNc2nc3ccc(-c4nc(N5CCOCC5)nc(N5CCOCC5)n4)cc3o2)cc1 | 6 | IC50 [4]: 100 nM; IC50 [5]: 51 nM; Ratio IC50 [6]: 16; Ratio IC50 [7]: 8.5; Ratio IC50 [8]: 581; IC50 [9]: 3490 nM
29 | CCN1CCN(c2nc(-c3ccc4oc(N)nc4c3)nc(N3CCOCC3)n2)CC1 | 598 | –
30 | O=[N+]([O-])c1ccc(CNc2nc3cc(-c4nc(N5CCOCC5)nc(N5CCOCC5)n4)ccc3o2)cc1 | 72 | –
31 | CC(C)(C)OC(=O)N1CCN(c2nc(-c3ccc4oc(N)nc4c3)nc(N3CCOCC3)n2)CC1 | 259 | –
32 | NC(=O)c1ccc(CNc2nc3cc(-c4nc(N5CCOCC5)nc(N5CCOCC5)n4)ccc3o2)cc1 | 47 | –
33 | CC(=O)N1CCN(c2nc(-c3ccc4oc(N)nc4c3)nc(N3CCOCC3)n2)CC1 | 23 | –
34 | CN(C)c1nc2cc(-c3nc(N4CCOCC4)nc(N4CCOCC4)n3)ccc2o1 | 2220 | –
35 | O=C(Nc1nc2cc(-c3nc(N4CCOCC4)nc(N4CCOCC4)n3)ccc2o1)C1CCCCC1 | 7450 | –
36 | CC(=O)O[C@H]1C(=O)[C@@]2(C)[C@H]([C@H](OC(=O)c3ccccc3)[C@]3(O)C[C@H](OC(=O)[C@H](O)[C@@H](NC(=O)c4ccccc4)c4ccccc4)C(C)=C1C3(C)C)[C@]1(OC(C)=O)CO[C@@H]1C[C@@H]2O [PACLITAXEL] | – | Activity [10]: Active; inhibition in vivo at 30 mg/kg [11]: 60.3%
37 | CC(=O)N1CCN(c2nc(-c3ccc4nc(N)oc4c3)nc(N3CCN(C(C)=O)CC3)n2)CC1 | > 10000 | –
38 | CS(=O)(=O)N1CCN(c2nc(-c3ccc4nc(N)oc4c3)nc(N3CCN(S(C)(=O)=O)CC3)n2)CC1 | > 10000 | –
39 | Nc1nc2ccc(-c3nc(N4CCOCC4)nc(N4CCC(C(F)(F)F)CC4)n3)cc2s1 | 5360 | –
40 | CC(=O)N1CCN(c2nc(-c3ccc4nc(N)sc4c3)nc(N3CCOCC3)n2)CC1 | 497 | –

— ChEMBL document CHEMBL5143740, “Discovery of Novel Phosphoinositide-3-Kinase α Inhibitors with High Selectivity, Excellent Bioavailability, and Long-Acting Efficacy for Gastric Cancer” (J Med Chem, 2022)
